Results taken from ChEMBL document CHEMBL2439957, “Design and synthesis of novel pyrimidone analogues as HIV-1 integrase inhibitors” (Bioorg Med Chem Lett, 2013).

How the values were obtained:
[1] = target: T1, Human immunodeficiency virus type 1 integrase (Human immunodeficiency virus 1, UniProt Q7ZJM1); assay: Inhibition of Human immunodeficiency virus 1 integrase 3'-processing activity after 30 mins by polyacrylamide gel electrophoresis
[2] = target: T1, Human immunodeficiency virus type 1 integrase; assay: Inhibition of Human immunodeficiency virus 1 integrase strand transfer activity after 30 mins by polyacrylamide gel electrophoresis

T1 sequence (Q7ZJM1 whole entry): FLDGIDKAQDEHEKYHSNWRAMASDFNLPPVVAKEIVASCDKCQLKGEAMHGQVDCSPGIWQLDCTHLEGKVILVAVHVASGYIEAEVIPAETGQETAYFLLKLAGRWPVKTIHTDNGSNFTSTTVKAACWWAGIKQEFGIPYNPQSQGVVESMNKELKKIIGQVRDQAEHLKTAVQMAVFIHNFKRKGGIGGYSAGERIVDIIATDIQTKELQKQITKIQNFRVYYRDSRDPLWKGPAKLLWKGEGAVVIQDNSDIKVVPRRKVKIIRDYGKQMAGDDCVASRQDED

For `CC(C)(C)c1nc(C(=O)NCc2ccc(F)cc2)c(O)c(=O)n1CCCNS(=O)(=O)c1ccccc1`, the IC50 [1] was > 20 µM and the IC50 [2] was 20 µM.

For `Cn1cnc(S(=O)(=O)NCCCn2c(C(C)(C)C)nc(C(=O)NCc3ccc(F)cc3)c(O)c2=O)c1`, the IC50 [1] was > 20 µM and the IC50 [2] was 12 µM.

With `CC(C)(C)c1nc(C(=O)NCc2ccc(F)cc2)c(O)c(=O)n1CCCNC(=O)C1CC1` [listing 1 of 2 here] the IC50 [1] was > 20 µM and the IC50 [2] was 5 µM.

In the case of `CC(C)(C)c1nc(C(=O)NCc2ccc(F)cc2)c(O)c(=O)n1CCCN`, the IC50 [1] is reported as > 20 µM and the IC50 [2] is reported as > 20 µM.

For `CC(C)(C)c1nc(C(=O)NCc2ccc(F)cc2)c(O)c(=O)n1CCCNC(=O)c1cccs1`, the IC50 [1] was > 20 µM and the IC50 [2] was 14 µM.

`CC(C)(C)c1nc(C(=O)NCc2ccc(F)cc2)c(O)c(=O)n1CCCNC(=O)c1ccccc1` was tested, and the IC50 [1] was > 20 µM and the IC50 [2] was 13 µM.

With `CC(C)(C)c1nc(C(=O)NCc2ccc(F)cc2)c(O)c(=O)n1CCCNC(=O)c1ccco1` the IC50 [1] was > 20 µM and the IC50 [2] was 3 µM.

`CC(C)(C)c1nc(O)c(O)c(C(=O)NCc2ccc(F)cc2)n1` was tested, and the IC50 [1] was > 20 µM and the IC50 [2] was 2 µM.

`CCC(=O)NCCCn1c(C(C)(C)C)nc(C(=O)NCc2ccc(F)cc2)c(O)c1=O` [listing 1 of 2 here] gave an IC50 [2] of 6 µM.

With `CCC(=O)NCCCn1c(C(C)(C)C)nc(C(=O)NCc2ccc(F)cc2)c(O)c1=O` [listing 2 of 2 here] the IC50 [1] was > 20 µM and the IC50 [2] was 4 µM.

`CCS(=O)(=O)NCCCn1c(C(C)(C)C)nc(C(=O)NCc2ccc(F)cc2)c(O)c1=O` was tested, and the IC50 [1] was > 20 µM and the IC50 [2] was 7 µM.

In the case of `CC(C)(C)c1nc(C(=O)NCc2ccc(F)cc2)c(O)c(=O)n1CCCNS(=O)(=O)C1CC1` [listing 1 of 2 here], the IC50 [1] is reported as > 20 µM and the IC50 [2] is reported as 9 µM.

With `CC(C)(C)c1nc(C(=O)NCc2ccc(F)cc2)c(O)c(=O)n1CCCNS(=O)(=O)C1CC1` [listing 2 of 2 here] the IC50 [2] was 20 µM.

For `CC(C)(C)c1nc(C(=O)NCc2ccc(F)cc2)c(O)c(=O)n1CCCNC(=O)Cc1cccs1`, the IC50 [1] was > 20 µM and the IC50 [2] was 20 µM.

For `CC(C)(C)C(=O)NCCCn1c(C(C)(C)C)nc(C(=O)NCc2ccc(F)cc2)c(O)c1=O`, the IC50 [1] was > 20 µM and the IC50 [2] was 20 µM.

With `CC(C)(C)OC(=O)NCCCn1c(C(C)(C)C)nc(C(=O)NCc2ccc(F)cc2)c(O)c1=O` the IC50 [1] was > 20 µM and the IC50 [2] was > 20 µM.

`CC(=O)Nc1ccc(S(=O)(=O)NCCCn2c(C(C)(C)C)nc(C(=O)NCc3ccc(F)cc3)c(O)c2=O)cc1` was tested, and the IC50 [1] was > 20 µM and the IC50 [2] was 8 µM.

For `CCCC(=O)NCCCn1c(C(C)(C)C)nc(C(=O)NCc2ccc(F)cc2)c(O)c1=O`, the IC50 [1] was > 20 µM and the IC50 [2] was 20 µM.

`CC(C)(C)c1nc(C(=O)NCc2ccc(F)cc2)c(O)c(=O)n1CCCNC(=O)C1CC1` [listing 2 of 2 here] was tested, and the IC50 [2] was 3 µM.

In the case of `CC(=O)NCCCn1c(C(C)(C)C)nc(C(=O)NCc2ccc(F)cc2)c(O)c1=O`, the IC50 [1] is reported as > 20 µM and the IC50 [2] is reported as 2 µM.
